From US20250127913A1, “BIFUNCTIONAL FOLATE RECEPTOR BINDING COMPOUNDS” (LYCIA THERAPEUTICS, INC., priority 2021, published 2025)

Tests used:
[1] = molecular target: TNFα trimer (Homo sapiens, UniProt P01375); assay: SPR binding kinetics of compounds to TNFα trimer; conditions: class symbols
Procedure: Streptavidin 100 μg/mL Streptavidin (Invitrogen Cat #: 434302) diluted in 10 mM sodium acetate, pH 4.5) was immobilized to both the reference and active surfaces as described in Example 51. The surfaces were conditioned with three injections of running Buffer (10 mM HEPES, 150 mMNaCl, 0.05% T20, pH 7.5, 2% DMSO) at a flow rate of 10 μL/min, Contact time: 60 s. Flow rate: 10 μL/min. The active surface was treated with biotinylated linked TNFα trimer 20 μg/mL diluted in running buffer at a flow rate of 5 μL/min contact time: 600 s, yielding a final response of ˜3000 RU. Example compounds were then serially diluted 1:1 in running buffer (10 mM HEPES, 150 mM NaCl, 0.05% T20, pH 7.5, 2% DMSO) from 30 uM to 937.5 nM and flowed over the active and reference surfaces from lowest concentration to greatest concentration in the single-cycle kinetics format, and then allowed to dissociate in running buffer for 7200 s, at 30 μL/min. Sensorgrams were solvent corrected, double-referenced, and the data fitted and analyzed in Biacore Insight Evaluation Software Version 3.0.11.15423.

[2] = tested on: THP-1 cells; assay: Compound mediated uptake of TNFα-pHrodo in THP-1 cells (flow cytometry); type: cell-based; design: key to Uptake in THP1 cells (run) 2 / Uptake in THP1 cells (run) 3 / Uptake in THP1 cells (run) 4: + = ΔMFI less than that of I-17; ++ = ΔMFI ≈ to that of I-17; +++ = ΔMFI greater than that of I-17; conditions: ΔMFI compared with I-17, uptake at 10 μM
Procedure: THP-1 cells, a monocytic leukemia cell line that endogenously express folate receptor beta, were used as a model system to measure example compound stimulated uptake of in-house produced TNFα conjugated to the pH sensitive fluorescent dye pHrodo green (ThermoFisher Scientific #P35369).
THP-1 cells were maintained in RPMI (Gibco #61870143) with 10% v/v FBS (VWR #89510-188) with 2 mM L-alanyl-L-glutamine dipeptide, 100 units/ml penicillin and 100 μg/ml streptomycin (Gibco #15140148). Cells were pelleted, resuspended in folate-free RPMI (Gibco #27016021) and seeded at 50,000 cells per well of a 96 well plate. Example compound was added to each well as a log 2 dilution series ranging from 20 μM to 125 nM final concentration. Cells were incubated for 24 hrs and washed/resuspended in phosphate buffered saline (pH 7.4) with 1% w/v BSA. Uptake was measured using a Novocyte Advanteon Flow Cytometer (Agilent Technologies) with the […] and FITC detection configuration.

[3] = molecular target: TNFα (Homo sapiens (Human), UniProt P01375); assay: TNFα binding assay (time-resolved FRET, biotinylated TNFα); conditions: 1 nM biotinylated TNFα, 80 nM probe, 16 hr incubation; read-out: TNF-HTRF-biotin
Procedure: TNFα binding was measured in black 96-well plates using a time-resolved FRET assay using a previously described fluorescence acceptor TNFα probe (Xiao et al J. Med. Chem. 2020). Biotinylated TNFα was purchased from Acro Biosystems. Binding reactions were conducted in 20 mM Hepes (pH 7.5) 10 mM MgCl2 0.015% Tween-20 0.05 mg/ml BSA 2% DMSO with 1 nM TNFα 0.5 nM Streptavidin-Tb and 80 nM probe. Test compounds were resuspended in DMSO and 3-fold serial dilutions were made at 100× final concentrations. Fluorescence was measured using λex=340 nm, λem=490, 520 nm on an SpectraMax M5e plate reader (Molecular Devices) after 16 hr incubation time. Dose responses were conducted in duplicate and normalized to the response with DMSO (high) and 100 nM (R)-3-(1-((3-chloro-7-fluoro-6-(2-(2-hydroxypropan-2-yl)pyrimidin-5-yl)-2-methyl-1,5-naphthyridin-4-yl)amino)ethyl)-4-fluorobenzonitrile (low) on each plate. IC50 values were determined by fitting to 4-parameter curves in GraphPad Prism.

[4] = molecular target: T1, folate receptor beta (Homo sapiens (Human), UniProt P14207); assay: Folate receptor binding assay (fluorescence polarization); conditions: 2.5 nM folate receptor beta, 2 nM FR-Cy probe, 2 hr incubation; read-out: FOLR2-FP
Procedure: Folate receptor binding was measured in black 96-well plates using a fluorescence polarization assay. A fluorescent probe consisting of a folate analog linked to Cy5 (FR-Cy) was custom synthesized.
Test compounds were resuspended in DMSO and 3-fold serial dilutions were made from 300-0.015 μM (100× final concentrations). Binding reactions were conducted in 200 μl final volume in 20 mM Hepes (pH 7.5) 250 mM NaCl 0.0150 Tween-20 1% DMSO with 2.5 nM folate receptor beta (Acro Biosystems) and 2 nM probe. Fluorescence polarization was measured using λex=620 nm, λem=688 nm on an Envision plate reader (Perkin Elmer) after 2 hr incubation time. Dose responses were conducted in duplicate and normalized to the response with DMSO (high) and 1 μM folic acid (low) on each plate. IC50 values were determined by fitting to 4-parameter curves in GraphPad Prism.

[5] = molecular target: T1, folate receptor beta; assay: Folate receptor SPR assay (biotinylated folate receptor beta on streptavidin chip); type: binding; conditions: for Rmax: biotinylated folate receptor beta on streptavidin chip; for kd / Kd / kon: multi-cycle kinetics, 25° C., 1:1 model; for Kd: read-out: FOLR2Biotin - SPR Kd; for kon: pH 7.5, read-out: ka
Procedure: Folate receptor SPR binding assays were conducted on a Biacore 8K instrument (Cytiva) using biotinylated folate receptor beta (Acro Biosystems). Briefly, folate receptor was immobilized at -550 RU on a streptavidin chip (Cytiva) in 10 mM HEPES pH 7.5, 150 mM NaCl, 0.05% Tween 20. Multi-cycle kinetic studies were conducted with 8 compound concentrations using 2-fold dilutions in 10 mM HEPES pH 7.5, 150 mM NaCl, 0.05% Tween 20, 2% DMSO at 25° C. A flow rate or 75 μl/mmn with an association time of 120 s and a dissociation time of 600 s were used. Surfaces were regenerated with 4 M MgCl2 at 30 μl/min for 30 s. Data were fit to a 1:1 model to determine the reported binding parameters.

[6] = molecular target: TNFα and streptavidin immobilized FOL2R (Homo sapiens (Human), UniProt P01375+P14207); assay: Ternary complex SPR assay; type: binding; conditions: 10 nM compound, max response normalized to expected response; for TC 150 nM- tagless TNF Normalized: 150 nM untagged TNF; for TC 300 nM- tagless TNF Normalized: 300 nM untagged TNF
Procedure: Folate receptor-TNFα ternary complex SPR assays were conducted on a Biacore 8K instrument (Cytiva) using biotinylated folate receptor beta (Acro Biosystems). Folate receptor was immobilized at -1800 RU on a streptavidin chip (Cytiva) in 10 mM HEPES pH 7.5, 150 mM NaCl, 0.05% Tween 20. Untagged TNF was preincubated with 10 nM compound for 6 hr in 10 mM HEPES pH 7.5, 150 mM NaCl, 0.05 Tween 20, 2% DMSO at 25° C. Samples were then injected over the folate receptor surface at 30 μl/min with an association time of 110 s and a dissociation time of 600 s. Surfaces were regenerated with 4 M MgCl2 at 30 μl/mm for 30 s. The maximum measured response was normalized by comparison to the maximum expected response for each compound.

T1 sequence (P14207 17-255): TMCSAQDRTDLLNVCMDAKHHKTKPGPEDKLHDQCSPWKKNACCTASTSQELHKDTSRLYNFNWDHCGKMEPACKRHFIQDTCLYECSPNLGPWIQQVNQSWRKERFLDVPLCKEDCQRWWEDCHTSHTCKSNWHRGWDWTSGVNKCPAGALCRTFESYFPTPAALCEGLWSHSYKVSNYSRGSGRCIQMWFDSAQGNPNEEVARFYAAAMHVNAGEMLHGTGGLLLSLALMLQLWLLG
TNFα, sequence (P01375 77-233): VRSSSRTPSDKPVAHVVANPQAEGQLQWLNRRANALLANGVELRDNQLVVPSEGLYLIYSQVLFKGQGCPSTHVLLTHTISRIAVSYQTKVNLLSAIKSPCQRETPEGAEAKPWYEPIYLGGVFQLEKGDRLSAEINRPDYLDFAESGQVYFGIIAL
TNFα and streptavidin immobilized FOL2R, sequence (P14207 17-230): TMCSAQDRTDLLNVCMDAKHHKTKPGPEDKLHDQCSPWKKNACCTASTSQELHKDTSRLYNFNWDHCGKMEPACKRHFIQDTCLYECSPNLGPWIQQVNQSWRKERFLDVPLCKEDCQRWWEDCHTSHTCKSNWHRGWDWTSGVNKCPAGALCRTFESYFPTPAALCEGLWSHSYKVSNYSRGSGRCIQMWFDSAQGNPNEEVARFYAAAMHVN
TNFα and streptavidin immobilized FOL2R, sequence (P01375 77-233): as the sequence (P01375 77-233) above
TNFα trimer, sequence (P01375 77-233 limits assumed): as the sequence (P01375 77-233) above

Row | Structure (SMILES) | Kd [1] [nM] | Uptake in THP1 cells (run) 2 ([2]; run 2) | Uptake in THP1 cells (run) 3 ([2]; run 3) | Uptake in THP1 cells (run) 4 ([2]; run 4) | IC50 [3] [nM] | IC50 [4] [nM] | Rmax [5] [RU] | kd [5] [s⁻¹] | Kd [5] [nM] | kon [5] [M⁻¹ s⁻¹] | TC 150 nM- tagless TNF Normalized [6] [%] | TC 300 nM- tagless TNF Normalized [6] [%] | TC 60 nM taggless TNF normalized ([6]; 60 nM untagged TNF) [%]
1 | Cc1nc2cc(F)c(-c3cnc(OCCCCCn4cc(COCCOCCOCCOCCNC(=O)CC[C@H](NC(=O)c5ccc(NCc6cnc7nc(N)nc(O)c7n6)cc5)C(=O)O)nn4)nc3)nc2c(N[C@H](C)c2cc(C#N)ccc2F)c1Cl [Compound I-17, (S)-18-(4-(((2-amino-4-hydroxypteridin-6-yl)methyl)amino)benzamido)-1-(1-(5-((5-(7-chloro-8-((I-1-(5-cyano-2-fluorophenyl)ethyl)amino)-3-fluoro-6-methyl-1,5-naphthyridin-2-yl)pyrimidin-2-yl)oxy)pentyl)-1H-1,2,3-triazol-4-yl)-15-oxo-2,5,8,11-tetraoxa-14-azanonadecan-19-oic acid] | < 1000 | ++ | ++ | +++ | – | – | – | – | – | – | – | – | –
2 | Cc1nc2cc(F)c(-c3cnc(N4CCN(C(=O)COCCn5cc(CCCN6CCC7(CC6)CCN(C(=O)CC[C@H](NC(=O)c6ccc(NCc8cnc9nc(N)nc(O)c9n8)cc6)C(=O)O)CC7)nn5)CC4)nc3)nc2c(N[C@H](C)c2cc(C#N)ccc2F)c1Cl [Compound I-90, (S)-2-(4-(((2-amino-4-hydroxypteridin-6-yl)methyl)amino)benzamido)-5-(9-(3-(1-(2-(2-(4-(5-(7-chloro-8-(((R)-1-(5-cyano-2-fluorophenyl)ethyl)amino)-3-fluoro-6-methyl-1,5-naphthyridin-2-yl)pyrimidin-2-yl)piperazin-1-yl)-2-oxoethoxy)ethyl)-1H-1,2,3-triazol-4-yl)propyl)-3,9-diazaspiro[5.5]undecan-3-yl)-5-oxopentanoic acid] | – | – | – | – | 7.6 | 4.4 | 13.3 | 0.00013 | 0.00496 | 2.62e+07 | 20.4 | 20.6 | –
3 | Cc1nc2cc(F)c(-c3cnc(N4CCN(C(=O)COCCn5cc(CN(CCO)CCOCCOCCOCCNC(=O)CC[C@H](NC(=O)c6ccc(NCc7cnc8nc(N)nc(O)c8n7)cc6)C(=O)O)nn5)CC4)nc3)nc2c(N[C@H](C)c2cc(C#N)ccc2F)c1Cl [Compound I-93, (S)-19-(4-(((2-amino-4-hydroxypteridin-6-yl)methyl)amino)benzamido)-3-((1-(2-(2-(4-(5-(7-chloro-8-(((R)-1-(5-cyano-2-fluorophenyl)ethyl)amino)-3-fluoro-6-methyl-1,5-naphthyridin-2-yl)pyrimidin-2-yl)piperazin-1-yl)-2-oxoethoxy)ethyl)-1H-1,2,3-triazol-4-yl)methyl)-1-hydroxy-16-oxo-6,9,12-trioxa-3,15-diazaicosan-20-oic acid] | – | – | – | – | 18 | 6.6 | 17.7 | 0.000178 | 0.0109 | 1.63e+07 | 16.1 | 18.2 | –
4 | Cc1nc2cc(F)c(-c3cnc(N4CCN(C(=O)COCCOCCOCCOCCOCCn5cc(CC[C@H](NC(=O)c6ccc(NCc7cnc8nc(N)nc(O)c8n7)cc6)C(=O)O)nn5)CC4)nc3)nc2c(N[C@H](C)c2cc(C#N)ccc2F)c1Cl [Compound I-89, (S)-2-(4-(((2-amino-4-hydroxypteridin-6-yl)methyl)amino)benzamido)-4-(1-(17-(4-(5-(7-chloro-8-(((R)-1-(5-cyano-2-fluorophenyl)ethyl)amino)-3-fluoro-6-methyl-1,5-naphthyridin-2-yl)pyrimidin-2-yl)piperazin-1-yl)-17-oxo-3,6,9,12,15-pentaoxaheptadecyl)-1H-1,2,3-triazol-4-yl)butanoic acid] | – | – | – | – | 42 | 8.4 | 31.1 | 0.000337 | 0.223 | 1.51e+06 | – | 15 | 11.6
5 | Cc1nc2cc(F)c(-c3cnc(N4CCN(C(=O)COCCOCCOCCOCCOCCOCCn5cc(CC[C@H](NC(=O)c6ccc(N(C)Cc7cnc8nc(N)[nH]c(=O)c8n7)cc6)C(=O)O)nn5)CC4)nc3)nc2c(N[C@H](C)c2cc(C#N)ccc2F)c1Cl [Compound I-86, (S)-2-(4-(((2-amino-4-oxo-3,4-dihydropteridin-6-yl)methyl)(methyl)amino)benzamido)-4-(1-(20-(4-(5-(7-chloro-8-(((R)-1-(5-cyano-2-fluorophenyl)ethyl)amino)-3-fluoro-6-methyl-1,5-naphthyridin-2-yl)pyrimidin-2-yl)piperazin-1-yl)-20-oxo-3,6,9,12,15,18-hexaoxaicosyl)-1H-1,2,3-triazol-4-yl)butanoic acid] | – | – | – | – | 17 | 7.7 | 18.1 | 0.000344 | 0.023 | 1.53e+07 | 20.1 | 22.8 | –
